Data from US20010041733A1, “Heterocyclic ester and amide hair growth compositions and uses” (GPI NIL Holdings, Inc., priority 1998, published 2001).

Tests used:
[1] = biological target: FKBP12 (Homo sapiens, UniProt P62942); assay: Ki test procedure: inhibition of peptidyl-prolyl isomerase (rotamase) activity, chymotrypsin-coupled assay; format: biochemical; details: substrate N-succinyl-Ala-Ala-Pro-Phe-p-nitroanilide, read-out: Ki (apparent)
Source text: The compounds used in the inventive methods and pharmaceutical compositions have an affinity for the inhibition of the prolyl peptidyl cis-trans isomerase activity of FKBP may be measured as an indicator of this affinity.
Inhibition of the peptidyl-prolyl isomerase (rotamase) activity of the compounds used in the inventive methods and pharmaceutical compositions can be evaluated by known methods described in the literature (Harding et al., Nature, […], 341:758-760; Holt et al. J. Am. Chem. Soc., 115:9923-9938). These values are obtained as apparent K1's and are presented for representative compounds in TABLE III.
The cis-trans isomerization of an alanine-proline bond in a model substrate, N-succinyl-Ala-Ala-Pro-Phe-p-nitroanilide, is monitored spectrophotometrically in a chymotrypsin-coupled assay, which releases para-nitroanilide from the trans form of the substrate. The inhibition of this reaction caused by the addition of different concentrations of inhibitor is determined, and the data is analyzed as a change in first-order rate constant as a function of inhibitor concentration to yield the apparerent K1, values. […]
The absorbance at 390 nm versus time is monitored for 90 seconds using a spectrophotometer and the rate constants are determined from the absorbance versus time data files.

[2] = tested on: C57 black 6 mice; assay: In vivo hair generation test, Experiment B; details: one micromole per milliliter topical, three times per week, 14 days after initiation of treatment
Procedure: Care was taken not to nick or cause abrasion to the underlying dermal layers. The animals were in a […] growth phase when shaved. […] The animals were treated three times per week, and hair growth was evaluated 14 days after initiation of treatment.

[3] = tested on: C57 black 6 mice; assay: In vivo hair generation test, Experiment A; details: 30 μM topical in 20% propylene glycol, 3 applications, after six weeks
Source text: Care was taken not to nick or cause abrasion to the underlaying dermal layers. The animals were in anagen growth phase, as indicated by the pinkish color of the skin. […] Hair growth was quantitated by the percent of shaved area covered by new hair growth during this time period.

Chain of FKBP12 (P62942 whole entry): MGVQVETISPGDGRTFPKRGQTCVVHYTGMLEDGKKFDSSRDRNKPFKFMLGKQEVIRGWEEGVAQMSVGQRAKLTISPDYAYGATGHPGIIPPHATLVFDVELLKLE

In the case of CCC(C)(C)C(=O)C(=O)N1CSC[C@@H]1C(=O)OCCCc1cccnc1 [Compound 2, 3-(3-pyridyl)-1-propyl (2S)-1-(3,3-dimethyl-1,2-dioxopentyl)-2-(4-thiazolidine) carboxylate], the Ki [1] is reported as 638 nM.

For CCC(C)(C)C(=O)C(=O)N1CCS[C@@H]1C(=O)OCCCc1cccnc1 [GPI 1572], the “hair growth (relative hair growth index, FIG. 5)” value [2] was “dramatic hair growth”.

With CCC(C)(C)C(=O)C(=O)N1CCC[C@H]1C(=O)OCCCc1cccnc1 [GPI 1046] the “hair regrowth in the shaved area” value [3] was “essentially complete hair regrowth”.

CCC(C)(C)C(=O)C(=O)N1CSC[C@@H]1C(=O)OCCCc1ccccc1 [Compound 1, 3-phenyl-1-propyl (2S)-1-(3,3-dimethyl-1,2-dioxopentyl)-2-(4-thiazolidine)carboxylate] was tested, and the Ki [1] was 215 nM.
